# Molecular target: T1, human renin (Homo sapiens, UniProt P00797)
# T1 sequence (P00797 67-406): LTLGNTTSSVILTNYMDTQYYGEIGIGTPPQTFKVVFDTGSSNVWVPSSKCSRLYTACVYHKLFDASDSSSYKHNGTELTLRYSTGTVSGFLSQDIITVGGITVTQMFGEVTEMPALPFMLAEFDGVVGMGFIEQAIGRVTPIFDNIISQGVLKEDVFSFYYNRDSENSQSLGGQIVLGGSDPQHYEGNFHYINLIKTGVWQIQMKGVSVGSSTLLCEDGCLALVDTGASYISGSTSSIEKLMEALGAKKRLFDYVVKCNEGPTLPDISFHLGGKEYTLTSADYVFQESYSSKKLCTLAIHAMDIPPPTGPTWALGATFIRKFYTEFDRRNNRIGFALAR
# Test: Determination of renin IC50 by tGFP FRET assay
# Format: biochemical
# Conditions: Human recombinant renin, tandem GFP substrate 650 nM, 60 min incubation with compound, pH 7.4, 11-point curve
# Method in brief: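 Human recombinant renin (final 50.4 μIU) preincubated 60 min with compound (5% DMSO final) in 50 mM HEPES, 1 mM EDTA, 1% PEG 8000, 1 mM DTT, 0.1% BSA, pH 7.4, then tandem-GFP substrate added at 650 nM final. FRET fluorescence read; IC50 from 11-point curves spanning 100 μM–1 pM.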
row,IC50 [nM],Compound
1,> 1000,"COc1ccccc1COCCCOc1ccc(N2C(=O)CNC[C@@H]2COc2ccc(NC(C)=O)cc2)cc1 [Example 93, N-[4-([2R]-1-{4-[3-(2-methoxybenzyloxy)-propoxy]-phenyl}-6-oxopiperazin-2-ylmethoxy)-phenyl]-acetamide]"
2,2550,"COc1ccccc1COCCOCc1ccc(N2CCNC[C@@H]2COc2ccc3ccccc3c2)cc1 [Example 94, (2R)-1-{4-[2-(2-methoxybenzyloxy)-ethoxymethyl]-phenyl}-2-(naphthalene-2-yloxymethyl)-piperazine]"
3,4050,"COc1ccccc1COCCCOc1ccc(N2C(=O)CNC[C@@H]2COc2ccc(C(=O)N(C)C)cc2)cc1 [Example 95, 4-([2R]-1-{4-[3-(2-methoxybenzyloxy)-propoxy]-phenyl}-6-oxopiperazin-2-ylmethoxy)-N,N-dimethyl-benzamide]"
4,> 1000,"COC(=O)c1cc(N2C(=O)CNC[C@@H]2COc2ccc3ccccc3c2)ccc1OCCCOCc1ccccc1OC [Example 96, 2-[(5R)-3-(2-methoxybenzyloxy)-propoxy]-5-[2-(naphthalene-2-yloxymethyl)-6-oxopiperazin-1-yl]-benzoic acid methyl ester]"
5,26300,"COc1ccccc1OCCCOCc1ccc(N2CCNC[C@@H]2COc2ccc3ccccc3c2)cc1 [Example 97, (2R)-1-(4-[3-(2-methoxyphenoxy)-propoxymethyl]-phenyl)-2-(naphthalene-2-yloxymethyl)-piperazine]"
6,> 1000,"COc1ccccc1COCCCOc1ccc(N2C(=O)CNC[C@@H]2COc2ccc3ccccc3c2)cc1C(=O)O [Example 98, 2-[(5R)-3-(2-methoxybenzyloxy)-propoxy]-5-[2-(naphthalene-2-yloxymethyl)-6-oxopiperazin-1-yl]-benzoic acid]"
7,> 1000,"COCc1ccc(N2CCNC[C@@H]2COc2ccc3ccccc3c2)cc1 [Example 99, (2R)-1-(4-methoxymethylphenyl)-2-(naphthalene-2-yloxymethyl)-piperazine]"
8,> 1000,"COc1ccccc1COCCCOc1ccc(N2C(=O)CNC[C@@H]2COc2ccc3ccccc3c2)cc1Cl [Example 100, (6R)-1-(3-chloro-4-[3-(2-methoxybenzyloxy)-propoxy]-phenyl)-6-(naphthalene-2-yloxymethyl)-piperazin-2-one]"
9,> 1000,"COc1ccccc1CSCCCOc1ccc(N2C(=O)CNC[C@@H]2COc2ccc3ccccc3c2)cc1 [Example 101, (6R)-1-{4-[3-(2-methoxybenzylsulfanyl)-propoxy]-phenyl}-6-(naphthalene-2-yloxymethyl)-piperazin-2-one]"
10,> 1000,"COc1ccccc1CSCCCOc1ccc(N2CCNC[C@@H]2COc2ccc3ccccc3c2)cc1 [Example 102, (2R)-1-{4-[3-(2-methoxybenzylsulfanyl)-propoxy]-phenyl}-2-(naphthalene-2-yloxymethyl)-piperazine]"
11,167,"COc1ccccc1COCCCOc1ccc(N2C(=O)CNC[C@@H]2COc2ccc3ccccc3c2)cc1C [Example 103, (6R)-1-{4-[3-(2-methoxybenzyloxy)-propoxy]-3-methyl-phenyl}-6-(naphthalene-2-yloxymethyl)-piperazin-2-one]"
12,1070,COc1ccccc1CCOCCOc1ccc(N2CCNC[C@@H]2COc2ccc3ccccc3c2)cc1 [Example 104]
13,225,"COc1ccc2ccc(OC[C@H]3CNCC(=O)N3c3ccc(OCCCOCc4ccccc4OC)cc3)cc2c1 [Example 105, (6R)-1-{4-[3-(2-methoxybenzyloxy)-propoxy]-phenyl}-6-(7-methoxynaphthalen-2-yloxymethyl)-piperazin-2-one]"
14,1510,"COc1ccccc1COCCCOc1ccc(N2C(=O)CNC[C@@H]2COc2cccc(-c3ccccc3)c2)cc1 [Example 106, (6R)-6-(biphenyl-3-yloxymethyl)-1-{4-[3-(2-methoxybenzyloxy)-propoxy]-phenyl}-piperazin-2-one]"
15,537,"COc1ccccc1COCCCOc1ccc(N2C(=O)CNC[C@@H]2COc2ccc3ccccc3c2)cc1OC [Example 107, (6R)-1-(3-methoxy-4-[3-(2-methoxybenzyloxy)-propoxy]-phenyl)-6-(naphthalene-2-yloxymethyl)-piperazin-2-one]"
16,3.17,"COCCCN1CCCc2ccc(OC[C@H]3CNCC(=O)N3c3ccc(OCCCOCc4ccccc4OC)cc3)cc21 [Example 109, (6R)-1-{4-[3-(2-Methoxybenzyloxy)-propoxy]-phenyl}-6-[1-(3-methoxypropyl)-1,2,3,4-tetrahydroquinolin-7-yloxymethyl]-piperazin-2-one]"
17,4.09,"COC(=O)CN1CCCc2ccc(OC[C@H]3CNCC(=O)N3c3ccc(OCCCOCc4ccccc4OC)cc3)cc21 [Example 110, {7-[(2R)-1-{4-[3-(2-Methoxybenzyloxy)-propoxy]-phenyl}-6-oxopiperazin-2-ylmethoxy]-3,4-dihydro-2H-quinolin-1-yl}-acetic acid methyl ester]"
18,3.91,"COCCCN1C(=O)CCc2ccc(OC[C@H]3CNCC(=O)N3c3ccc(OCCCOCc4ccccc4OC)cc3)cc21 [Example 111, 7-([2R]-1-{4-[3-(2-Methoxybenzyloxy)-propoxy]-phenyl}-6-oxopiperazin-2-ylmethoxy)-1-(3-methoxypropyl)-3,4-dihydro-1H-quinolin-2-one]"
19,1.7,"COCCCN1C(=O)CCc2ccc(OC[C@@H]3CNCC(=O)N3c3ccc(OCCCOCc4ccccc4OC)cc3)cc21 [Example 112, 7-([2S]-1-{4-[3-(2-Methoxybenzyloxy)-propoxy]-phenyl}-6-oxopiperazin-2-ylmethoxy)-1′-(3-methoxypropyl)-3,4-dihydro-1H-quinolin-2-one]"
20,10,"COC(=O)Cn1ccc2cc(OC[C@@H]3CNCC(=O)N3c3ccc(OCCCOCc4ccccc4OC)cc3)ccc21 [Example 113, [5-([2S]-1-{4-[3-(2-Methoxybenzyloxy)-propoxy]-phenyl}-6-oxopiperazin-2-ylmethoxy)-indol-1-yl]-acetic acid methyl ester]"
21,4,"COC(=O)CN1C(=O)CCc2ccc(OC[C@H]3CNCC(=O)N3c3ccc(OCCCOCc4ccccc4OC)cc3)cc21 [Example 116, [7-([2R]-1-{4-[3-(2-Methoxybenzyloxy)-propoxy]-phenyl}-6-oxopiperazin-2-ylmethoxy)-2-oxo-3,4-dihydro-2H-quinolin-1-yl]-acetic acid methyl ester]"
22,6.83,"COC(=O)CN1C(=O)COc2ccc(OC[C@H]3CNCC(=O)N3c3ccc(OCCCOCc4ccccc4OC)cc3)cc21 [Example 118, [6-([2R]-1-{4-[3-(2-Methoxybenzyloxy)-propoxy]-phenyl}-6-oxo-piperazin-2-ylmethoxy)-3-oxo-2,3-dihydro-benzo[1,4]oxazin-4-yl]-acetic acid methyl ester]"
23,1.62,"COC(=O)CCn1ccc2cc(OC[C@H]3CNCC(=O)N3c3ccc(OCCCOCc4ccccc4OC)cc3)ccc21 [Example 119, 3-[5-([2R]-1-{4-[3-(2-Methoxybenzyloxy)-propoxy]-phenyl}-6-oxopiperazin-2-ylmethoxy)-indol-1-yl]-propionic acid methyl ester]"
24,4.66,"COc1ccccc1COCCCOc1ccc(N2C(=O)CNC[C@@H]2COc2ccc3c(ccn3CCNC(C)=O)c2)cc1 [Example 120, N-{2-[5-([2R]-1-{4-[3-(2-Methoxybenzyloxy)-propoxy]-phenyl}-6-oxopiperazin-2-ylmethoxy)-indol-1-yl]-ethyl}-acetamide]"
25,6,"COC(=O)Cn1c(C)cc2cc(OC[C@H]3CNCC(=O)N3c3ccc(OCCCOCc4ccccc4OC)cc3)ccc21 [Example 121, [5-([2R]-1-{4-[3-(2-Methoxybenzyloxy)-propoxy]-phenyl}-6-oxopiperazin-2-ylmethoxy)-2-methyl-indol-1-yl]-acetic acid methyl ester]"
26,0.36,"COC(=O)CCN1CCCc2ccc(OC[C@H]3CNCC(=O)N3c3ccc(OCCCOCc4ccccc4OC)cc3)cc21 [Example 122, 3-[7-([2R]-1-{4-[3-(2-Methoxybenzyloxy)-propoxy]-phenyl}-6-oxopiperazin-2-ylmethoxy)-3,4-dihydro-2H-quinolin-1-yl]-propionic acid methyl ester]"
27,9,"CCC(=O)OCCN1CCCc2ccc(OC[C@H]3CNCC(=O)N3c3ccc(OCCCOCc4ccccc4OC)cc3)cc21 [Example 123, Propionic acid 2-[7-([2R]-1-{4-[3-(2-methoxybenzyloxy)-propoxy]-phenyl}-6-oxopiperazin-2-ylmethoxy)-3,4-dihydro-2H-quinolin-1-yl]-ethyl ester]"
28,0.35,"COc1ccccc1COCCCOc1ccc(N2C(=O)CNC[C@@H]2COc2ccc3c(c2)N(CCNC(C)=O)CCC3)cc1 [Example 124, N-{2-[7-([2R]-1-{4-[3-(2-Methoxybenzyloxy)-propoxy]-phenyl}-6-oxopiperazin-2-ylmethoxy)-3,4-dihydro-2H-quinolin-1-yl]-ethyl}-acetamide]"
29,0.53,"COc1ccccc1COCCCOc1ccc(N2CCNC[C@@H]2COc2ccc3c(c2)N(CCNC(C)=O)CCC3)cc1 [Example 125, N-{2-[7-([2R]-1-{4-[3-(2-Methoxybenzyloxy)-propoxy]-phenyl}-piperazin-2-ylmethoxy)-3,4-dihydro-2H-quinolin-1-yl]-ethyl}-acetamide]"

row,Compound,IC50 [nM]
1,"COc1ccccc1OCCCCOc1ccc(N2CCNC[C@@H]2COc2ccc3ccccc3c2)cc1 [Example 108, (2R)-1-{4-[4-(2-methoxyphenoxy)-butoxy]-phenyl}-2-(naphthalene-2-yloxymethyl)-piperazine]",1360

# Source: patent publication US20040214832A1, “Piperazine derivative renin inhibitors” (priority 2003, published 2004)
